# Assay results taken from ChEMBL document CHEMBL4732246, “Design, synthesis, and evaluation of a novel prodrug, a S-trityl--cysteine derivative targeting kinesin spindle protein” (Eur J Med Chem, 2021).
# Assays:
# [1] = target: T1, Kinesin-like protein KIF11 (Homo sapiens, UniProt P52732); assay: Inhibition C-terminal His-tagged KSP motor domain(1 to 369 residues) (unknown origin) expressed in bacteria assessed as inhibition of microtubule-stimulated ATPase activity preincubated for 30 mins followed by addition of ATP and measured after 15 mins by luciferase-derived luminiscence assay
# T1 sequence (P52732 whole entry): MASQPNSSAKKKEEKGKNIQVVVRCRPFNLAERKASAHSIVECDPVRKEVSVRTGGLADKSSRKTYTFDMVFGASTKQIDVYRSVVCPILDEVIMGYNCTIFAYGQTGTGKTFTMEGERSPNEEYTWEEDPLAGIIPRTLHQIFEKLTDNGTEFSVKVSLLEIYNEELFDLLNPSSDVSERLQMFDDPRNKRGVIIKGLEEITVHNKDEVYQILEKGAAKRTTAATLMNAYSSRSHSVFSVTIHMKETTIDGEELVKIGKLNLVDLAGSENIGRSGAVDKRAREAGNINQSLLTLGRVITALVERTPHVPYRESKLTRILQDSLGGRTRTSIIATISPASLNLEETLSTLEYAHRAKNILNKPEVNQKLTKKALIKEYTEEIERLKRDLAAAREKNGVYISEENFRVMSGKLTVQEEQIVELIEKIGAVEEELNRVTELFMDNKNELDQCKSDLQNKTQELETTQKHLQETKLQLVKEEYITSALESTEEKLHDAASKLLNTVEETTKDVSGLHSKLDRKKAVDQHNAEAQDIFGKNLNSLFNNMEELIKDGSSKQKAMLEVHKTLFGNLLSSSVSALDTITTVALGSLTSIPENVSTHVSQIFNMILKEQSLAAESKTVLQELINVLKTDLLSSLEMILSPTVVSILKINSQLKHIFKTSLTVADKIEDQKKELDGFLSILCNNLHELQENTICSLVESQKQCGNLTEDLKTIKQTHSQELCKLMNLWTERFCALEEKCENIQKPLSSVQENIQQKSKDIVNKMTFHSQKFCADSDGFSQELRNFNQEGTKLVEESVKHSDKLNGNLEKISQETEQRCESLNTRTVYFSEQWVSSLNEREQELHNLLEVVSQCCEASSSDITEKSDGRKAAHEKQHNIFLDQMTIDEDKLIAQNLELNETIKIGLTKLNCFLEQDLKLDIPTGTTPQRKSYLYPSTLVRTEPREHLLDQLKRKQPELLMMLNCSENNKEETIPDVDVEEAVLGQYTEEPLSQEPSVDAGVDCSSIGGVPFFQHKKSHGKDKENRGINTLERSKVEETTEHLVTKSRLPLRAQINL
# HCT-116 = assay: Cytotoxicity against human HCT-116 cells assessed as cell growth inhibition measured after 72 hrs by MTS assay; assay type: functional
# A549 = assay: Cytotoxicity against human A549 cells overexpressing GGT assessed as cell growth inhibition measured after 72 hrs by MTS assay; assay type: functional
# NCI-H460 = assay: Cytotoxicity against human NCI-H460 cells expressing low GGT assessed as cell growth inhibition measured after 72 hrs by MTS assay; assay type: functional
SMILES,IC50 [1] [nM],GI50 (HCT-116) [nM],GI50 (A549) [nM],GI50 (NCI-H460) [nM]
N[C@@H](CSC1(c2ccc(C(F)(F)F)cc2)c2ccccc2CCc2ccccc21)C(=O)NCc1ccccc1,358,282,–,–
N[C@@H](CSC1(c2ccc(C(F)(F)F)cc2)c2ccccc2CCc2ccccc21)C(=O)NCCO,80,60,–,–
N[C@@H](CSC1(c2ccc(C(F)(F)F)cc2)c2ccccc2CCc2ccccc21)C(=O)NCCN1CCCCC1,146,191,–,–
NCCOCCOCCNC(=O)C(N)CSC1(c2ccc(C(F)(F)F)cc2)c2ccccc2CCc2ccccc21 (stereo not given),42,63,–,–
N[C@@H](CSC1(c2ccc(C(F)(F)F)cc2)c2ccccc2CCc2ccccc21)C(=O)O,–,33,33,15
CC(=O)N[C@@H](CSC1(c2ccc(C(F)(F)F)cc2)c2ccccc2CCc2ccccc21)C(=O)O,–,> 1000,–,–
CN(C)CCNC(=O)[C@@H](N)CSC1(c2ccc(C(F)(F)F)cc2)c2ccccc2CCc2ccccc21,56,115,–,–
CC(C)(C)OC(=O)N[C@@H](CSC1(c2ccc(C(F)(F)F)cc2)c2ccccc2CCc2ccccc21)C(=O)O,–,> 1000,–,–
